Assay results reported in patent publication US10023615B2, “Efficient transport into white blood cells” (priority 2008, dated 2018).
Square brackets hold non-standard residues; d marks the D form. Ends that are not written are not given here.

How the values were obtained:
U937 lymphoma cells = assay: Uptake (internalization) of FITC-labeled TAT derived transporter constructs in U937 cells, fluorescence plate reader; assay type: cell-based; conditions: 10 μM, U937, Lymphoma, 24 h
Protocol: Cells were plated into poly-DL-lysine coated dishes at a concentration of 1×10^6 cells/ml. Plates were then incubated for 24 h at 37° C., 5% CO2, and 100% relative humidity prior to the addition of a known concentration of peptide. After peptide addition, the cells were incubated 30 min, 1, 6 or 24 h at 37° C., 5% CO2, and 100% relative humidity. Cells were then washed twice with an acidic buffer (Glycin 0.2 M, NaCl 0.15 M, pH 3.0) in order to remove the cell-surface adsorbed peptide (see Kameyama et al., (2007), Biopolymers, 88, 98-107). […] The cell wash using an acidic buffer was thus employed to remove the cell-surface adsorbed peptides. […] Cells were broken by the addition of the RIPA lysis buffer. The relative amount of internalized peptide was then determined by fluorescence after background substraction and protein content normalization. • The steps are thus: 1. […] Analysis of peptide internalization with a fluorescence plate reader • f) Cell Culture and Peptide Treatment • (1) The 6 well culture plates are coated with 3 ml of Poly-D-Lys (Sigma P9011; 25 μg/ml in PBS), the 24 well plates with 600 μl and the 96 well plates with 125 μl and incubated for 4 h at 37° C., CO2 5% and 100% relative humidity. • (2) After 4 hours the dishes were washed twice with 3.5 ml PBS, 700 μl or 150 μl PBS for the 6, 24 or 96 well plates, respectively. • (3) The cells were plated into the dishes in 2.4 ml medium (RPMI) at plating densities of 1′000′000 cells/ml for suspension cells. After inoculation, the plates were incubated at 37° C., 5% CO2 and 100% relative humidity for 24 hours prior to the addition of the peptide. Adherent cells should be at a density of 90-95% the day of treatment and were plated in DMEM :
• (4) The cells were treated with the desired concentration of FITC labeled peptide (stock solution at a concentration of 10 mM in H2O). • (5) Following peptide addition, the cells were incubated 0 to 24 hours (e.g. 30 min, 1, 6 or 24 hours) at 37° C., CO2 5% and 100% relative humidity. • Acidic Wash and Cellular Extracts: • (6) The extracts were cooled on ice. • Suspension cells (or cells, which don attach well to the dish): • Transfer the cells in ? […] To recover the maximum of cells, wash the dish with 1 ml of PBS. • Harvest the cells 2 min at 2400 rpm max. • Suspend the cells in 1 ml cold PBS. • Transfer the cells into a coated “Eppendorf tube” (coated with 1 ml of poly D-Lys for 4 hours and washed twice with 1 ml PBS). • Wash three times with 1 ml of cold acidic wash buffer and centrifuge 2 min at 2400 rpm max. Beware of the spreading of the cells in the “eppendorf”. • Wash twice with 1 ml cold PBS to neutralize. • Add 50 μl of lysis RIPA Buffer. • Incubate 30 min-1 h on ice with agitation. • Adherent Cells: • Wash three times with 3 ml, 1 ml or 200 μl (for 6, 24 or 96 well plates, respectively) of cold acidic wash buffer. Beware of the cells who detach from the dish. • Wash twice with 1 ml cold PBS (for 6, 24 or 96 well plates, respectively) to neutralize. • Add 50 μl of lysis RIPA buffer. • Incubate 30 min-1 h on ice with agitation. • Scrap the cells with a cold scrapper. The 24 and 96 well plates were directly centrifuged at 4000 rpm at 4° for 15 min to remove the cellular debris. Then the supernatants (100 or 50 ml respectively for the 24 or 96 well plates) were directly transferred in a dark 96 well plated.

[1] = system: dissociated cortical primary neurons; assay: Confocal microscopy of FITC-labeled TAT derivative transporters in cortical primary neurons; assay type: cell-based, rat; conditions: 500 nM, 24 hours
Protocol: 8.4 Internalization Experiments and Analysis • The time dependant internalization (uptake) of FITC-labeled TAT derived transporter constructs into cells of the HL-60 cell line was carried out with materials and methods as described above. • Briefly, HL-60 cells were incubated 30 min, 1, 6 or 24 hours with 10 μM of the TAT-derivative transporters. The cells were then washed twice with an acidic buffer (0.2 M Glycin, 0.15 M NaCl, pH 3.0) and twice with PBS. Cells were broken by the addition of RIPA lysis buffer. The relative amount of internalized peptide was then determined by reading the fluorescence intensity (Fusion Alpha plate reader; PerkinElmer) of each extract followed by background substraction and protein content normalization. […] The dissociated cortical primary neurons from P2 Sprague Dawley rats were cultured 12 days in neurobasal medium before exposure 24 hours to 500 nM of the FITC-labeled • TAT derivative transporters. The cells were washed five times with PBS on ice and then mounted in fluorsave mounting medium without prior fixation. Acquisitions were performed on LSM510 metaconfocal microscope (Zeiss). Images were processed with LSM510 software and mounted using Adobe photoshop. Visualization by confocal microscopy of labeling with 500 nM FITC-transporters (A: green). Nuclei were stained by Hoechst (B: blue).

Monocytes (CD14) = assay: Flow cytometry of FITC-transporter content in primary human white blood cells: monocytes; assay type: cell-based; conditions: 1 uM, 30 min
Excerpt: (§1) Primary human white blood cells (WBC) were obtained from whole blood after red blood cell lysis. […] Cells containing D-TAT-FITC and r3-L-TAT-FITC were finally analysed by flow cytometry to measure their respective transporter content.

Lymphocytes B (CD19) = assay: Flow cytometry of FITC-transporter content in primary human white blood cells: lymphocytes B; assay type: cell-based; conditions: 1 uM, 30 min
Excerpt: as §1

Neutrophils (CD15) = assay: Flow cytometry of FITC-transporter content in primary human white blood cells: neutrophils; assay type: cell-based; conditions: 1 uM, 30 min
Excerpt: as §1

Lymphocytes T (CD3) = assay: Flow cytometry of FITC-transporter content in primary human white blood cells: lymphocytes T; assay type: cell-based; conditions: 1 uM, 30 min
Excerpt: as §1

[2] = system: HL-60 cell line (Leukemia); assay: Time dependant internalization of FITC-labeled TAT derived transporter constructs into HL-60 cells; assay type: cell-based; conditions: 10 μM; 30 min, 1, 6 or 24 hours
Protocol: FIG. 3: depicts the results of the time dependant internalization (uptake) of FITC-labeled TAT derived transporter constructs into cells of the HL-60 cell line. […] HL-60 cells were incubated 30 min, 1, 6 or 24 hours with […] of the TAT-derivative transporters. The cells were then washed twice with an acidic buffer (0.2 M Glycin, 0.15 M NaCl, pH 3.0) and twice with PBS. Cells were broken by the addition of RIPA lysis buffer. The relative amount of internalized peptide was then determined by reading the fluorescence intensity (Fusion Alpha plate reader; PerkinElmer) of each extract followed by background substraction and protein content normalization. […]

U937 cells = assay: Intracellular concentration of transporter constructs subsequent to uptake into U937 cells; assay type: cell-based; conditions: U937 cells, 10 μM construct
Protocol: 9. Determination of Intracellular Concentration of Specific Transporter Constructs Subsequent to Uptake (Internalization) of these Peptides into U937 Cells • According to a further experiment, the concentration of specific transporter constructs subsequent to uptake (internalization) of these peptides into U937 cells were determined.

rKKRrQRRr ([dR]KKR[dR]QRR[dR]) [r3-L-TAT]
uptake (internalization) (U937 lymphoma cells): most efficient | internalization seen by confocal microscopy [1]: internalized into the cytoplasm of the non stressed neurons | binding to cell population (Monocytes (CD14)): binds to monocytes, neutrophils and lymphocyte T cells | binding to cell population (Lymphocytes B (CD19)): less efficiently to lymphocyte B cells | binding to cell population (Neutrophils (CD15)): binds to monocytes, neutrophils and lymphocyte T cells | binding to cell population (Lymphocytes T (CD3)): binds to monocytes, neutrophils and lymphocyte T cells | time dependant internalization (uptake) [2]: as effective as the D-TAT transporter construct | intracellular concentration of transporter construct subsequent to uptake (U937 cells; 2 h): 2.34 | intracellular concentration of transporter construct subsequent to uptake (U937 cells; 4 h): 3.16 | intracellular concentration of transporter construct subsequent to uptake (U937 cells; 6 h): 3.56 | intracellular concentration of transporter construct subsequent to uptake (U937 cells; 24 h): 11.2
